Test results as given in US11285218B2, “Degradation of bromodomain-containing protein 9 (BRD9) by conjugation of BRD9 inhibitors with E3 ligase ligand and methods of use” (Dana-Farber Cancer Institute, Inc., priority 2016, dated 2022).
Entries after “also recorded” stand apart in the source; their conditions may differ.

Assays:
[1] = molecular target: T1, BRD9 (Homo sapiens, UniProt Q9H8M2); experiment: BRD9 immunoblot in MM1S cells
T1 sequence (Q9H8M2 1-597): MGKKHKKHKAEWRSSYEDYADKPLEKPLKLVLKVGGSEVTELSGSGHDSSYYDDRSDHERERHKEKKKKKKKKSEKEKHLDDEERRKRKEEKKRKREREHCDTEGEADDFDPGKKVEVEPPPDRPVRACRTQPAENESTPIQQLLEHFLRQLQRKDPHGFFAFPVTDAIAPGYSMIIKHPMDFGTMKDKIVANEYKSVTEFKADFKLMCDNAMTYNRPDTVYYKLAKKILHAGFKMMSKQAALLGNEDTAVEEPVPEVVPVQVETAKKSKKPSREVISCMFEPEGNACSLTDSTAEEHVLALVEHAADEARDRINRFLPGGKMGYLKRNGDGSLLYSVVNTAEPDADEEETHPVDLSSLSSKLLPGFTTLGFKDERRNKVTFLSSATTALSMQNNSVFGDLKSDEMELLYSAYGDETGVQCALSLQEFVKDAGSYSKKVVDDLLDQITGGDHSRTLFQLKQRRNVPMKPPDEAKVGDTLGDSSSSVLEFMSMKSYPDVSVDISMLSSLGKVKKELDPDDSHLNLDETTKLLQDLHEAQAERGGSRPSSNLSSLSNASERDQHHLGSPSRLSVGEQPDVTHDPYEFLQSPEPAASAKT
Experimental: (§2) In additional experiments, cells were washed with PBS, before being lysed in RIPA buffer supplemented with 1×HALT™ protease inhibitor cocktail (Thermo Scientific) for 10 min on ice, followed by low-amplitude sonication for 10 seconds at 4° C. […] In soluble material was removed by centrifugation at 20,000×g for 20 min before protein content was quantified by BCA assay (Pierce). […] Blots were imaged using fluorescence-labeled secondary antibodies (LI-COR) on the OdysseyCLxImager (LI-COR).

[2] = molecular target: T1, BRD9; experiment: BRD9 immunoblot in MM1S CRBN knockout cells; conditions: MM.1S CRBN knockout cell line, 4 hour treatment, indicated doses
Experimental: as §2

[3] = molecular target: BRD4(1) (Homo sapiens, UniProt O60885); experiment: BRD4(1) ligand-displacement AlphaScreen; assay type: binding; parameters: substituting protein and biotin-probe components for BRD4(1) protein at 20 nM final; His tag (inferred from Ni-coated acceptor beads)
[4] = tested on: MV411 cell line; experiment: ATPlite viability assay, MV4;11; conditions: MV4;11, 72 hours; in words
Experimental: (§3) 500 cells/well were plated at a volume of 40 μL/well in white tissue culture treated 384 well assay plates (Thermo Scientific) before DMSO compound stock was added from pre-diluted plates by pin transfer using a Janus Workstation (PerkinElmer, USA). […] Assay plates were allowed to equilibrate to RT for 30 min before reconstituted ATPlite 1 Step reagent (Perkin Elmer) was dispensed at 1:1 volume/well by EL406 automated liquid handler (Biotek, USA).

[5] = molecular target: T2, CRBN-DDB1 (Homo sapiens, UniProt Q96SW2); experiment: CRBN-DDB1 ligand-displacement AlphaScreen; assay type: binding; conditions: purified CRBN-DDB1 ligand displacement
T2 construct: made in house; host or cells: Sf9 cells (Invitrogen)
Experimental: Following a 30 min incubation, 20 uL detection solution containing Streptavidin Donor Beads and Nickel Chelate AlphaLISA® Acceptor Beads diluted to 20 ng/uL in assay buffer was added to each well.

[6] = molecular target: T3, PBRM1(2) (Homo sapiens, UniProt Q86U86); experiment: BromoScan single-point screen; assay type: binding; conditions: percent of protein captured on solid support vs control
T3 construct: utilizing DNA-tagged bromodomain and immobilized ligand attached to solid support
T3 sequence (Q86U86 177-287 limits assumed): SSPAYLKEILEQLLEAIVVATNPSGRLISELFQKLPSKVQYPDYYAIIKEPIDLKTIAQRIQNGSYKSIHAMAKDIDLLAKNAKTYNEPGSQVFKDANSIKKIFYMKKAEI
Excerpt: (§1) The BromoScan is an assay that measures the engagement of compounds with bromodomain proteins by utilizing DNA-tagged bromodomain and immobilized ligand attached to solid support. In the control test, DNA-tagged bromodomain binds to the ligand and the bromodomain is captured on the solid support. Compounds that compete for the bromodomain binding location on the ligand will prevent the bromodomain from binding, resulting in less protein captured on the solid support.

[7] = molecular target: T4, BRD1 (Homo sapiens, UniProt O95696); experiment: BromoScan single-point screen; assay type: binding; conditions: percent of protein captured on solid support vs control
T4 construct: utilizing DNA-tagged bromodomain and immobilized ligand attached to solid support
T4 sequence (O95696 562-666 limits assumed): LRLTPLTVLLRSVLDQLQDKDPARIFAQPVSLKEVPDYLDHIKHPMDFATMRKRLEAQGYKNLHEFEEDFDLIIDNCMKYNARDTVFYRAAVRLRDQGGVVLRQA
Excerpt: as §1

[8] = molecular target: T5, TAF1L(2) (Homo sapiens, UniProt Q8IZX4); experiment: BromoScan single-point screen; assay type: binding; conditions: percent of protein captured on solid support vs control
T5 construct: utilizing DNA-tagged bromodomain and immobilized ligand attached to solid support
T5 sequence (Q8IZX4 1517-1626 limits assumed): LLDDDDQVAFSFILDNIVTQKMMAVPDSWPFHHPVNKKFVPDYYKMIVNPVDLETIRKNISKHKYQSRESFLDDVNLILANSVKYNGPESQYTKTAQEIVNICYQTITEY
Excerpt: as §1

[9] = molecular target: T6, TRIM24 (PHD, Bromo.) (Homo sapiens, UniProt O15164); experiment: BromoScan single-point screen; assay type: binding; conditions: percent of protein captured on solid support vs control
T6 construct: utilizing DNA-tagged bromodomain and immobilized ligand attached to solid support
T6 sequence (O15164 824-1006 limits assumed): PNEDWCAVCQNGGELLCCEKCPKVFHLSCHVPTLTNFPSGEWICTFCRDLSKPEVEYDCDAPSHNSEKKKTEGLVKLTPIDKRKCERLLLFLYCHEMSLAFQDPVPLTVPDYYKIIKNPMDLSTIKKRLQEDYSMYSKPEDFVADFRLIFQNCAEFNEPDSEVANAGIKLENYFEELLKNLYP
Excerpt: as §1

[10] = molecular target: T7, BAZ^2B (Homo sapiens, UniProt Q9UIF8); experiment: BromoScan single-point screen; assay type: binding; conditions: percent of protein captured on solid support vs control
T7 construct: utilizing DNA-tagged bromodomain and immobilized ligand attached to solid support
T7 sequence (Q9UIF8 2060-2164 limits assumed): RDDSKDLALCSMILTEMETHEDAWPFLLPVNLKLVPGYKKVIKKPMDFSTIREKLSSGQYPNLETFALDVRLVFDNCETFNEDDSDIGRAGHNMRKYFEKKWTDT
Excerpt: as §1

[11] = molecular target: T8, FALZ (Homo sapiens, UniProt Q12830); experiment: BromoScan single-point screen; assay type: binding; conditions: percent of protein captured on solid support vs control
T8 construct: utilizing DNA-tagged bromodomain and immobilized ligand attached to solid support
Excerpt: as §1

[12] = molecular target: BRD9:CRBN-DDB1 protein complex (Homo sapiens, UniProt Q96SW2+Q9H8M2); experiment: BRD9:CRBN-DDB1 dimerization assay (luminescence); conditions: for formation of the BRD9:CRBN-DDB1 protein complex: in words
Experimental: To measure this activity, a homogenous luminescence assay was developed to report on compound-induced proximity of BRD9 and CRBN.
(§4) To detect CRBN-DDBI/BRD4 dimerization, we adapted bead-based AlphaScreen technology. […] Compounds were then pinned at 100 nL per well from DMSO stock. After 1 incubation at room temperature. Nickel Chelate AlphaLISA Acceptor and Glutathione AlphaLISA Donor beads (PerkinElmer) were diluted in assay buffer to 20 μg/mL and added at 20 μl per well.

[13] = tested on: MOLM-13 cell line; experiment: ATPlite viability assay, MOLM-13; conditions: MOLM-13, 72 hours; in words
Experimental: as §3

[14] = molecular target: BRD4:CRBN-DDB1 protein complex (Homo sapiens, UniProt O60885+Q96SW2); experiment: CRBN-DDB1/BRD4 dimerization assay (luminescence); conditions: in words
Experimental: as §4

[15] = molecular target: T1, BRD9; experiment: BRD9 immunoblot in MOLM-13
Experimental: as §2

[16] = molecular target: T9, BRD9 (Homo sapiens, UniProt Q9H8M2); experiment: BRD9-ligand displacement AlphaScreen; assay type: binding
T9 construct: A construct of human BRD9 covering residues 134-0245 in the pET28PP vector; made in house; host or cells: E. coli BL21 (DE3)
T9 sequence (Q9H8M2 134-245 limits assumed): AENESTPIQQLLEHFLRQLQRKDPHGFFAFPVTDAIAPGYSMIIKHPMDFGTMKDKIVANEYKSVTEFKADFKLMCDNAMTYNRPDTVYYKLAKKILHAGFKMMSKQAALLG
Experimental: BRD9 assays were performed with minimal modifications from the manufacturer's protocol (PerkinElmer, USA). All reagents were diluted in 50 mM HEPES, 150 mM NaCl, 0.1% w/v BSA, 0.01% w/v Tween20, pH 7.5. […] Plates were spun down at 150×g, and 100 nL of DMSO compound stock was added from pre-diluted plates by pin transfer using a Janus Workstation (PerkinElmer, USA). Under low light, a 2× suspension of Ni-coated Acceptor Beads and Streptavidin Donor Beads, was then added at 10 ul/well to a final concentration of 5 μg/ml by EL406 automated liquid handler (Biotek, USA).

[17] = MMIS cells, 4 hours pretreatment, then 100 nM
[18] = luminescence detection of dimerization assay

COc1cc(-c2cn(C)c(=O)c3cc(C(=N)NC4CCS(=O)(=O)CC4)sc23)ccc1OCC(=O)NCCCCCCCCNc1cccc2c1CN(C1CCC(=O)NC1=O)C2=O (stereo not shown) [Compound I-17]
BRD9 degradation after pretreatment with excess I-BRD9 [1, 17]: prevented degradation | BRD9 degradation after pretreatment with excess lenalidomide [1, 17]: prevented degradation | BRD9 degradation with co-treatment with carfilzomib [1, 17]: Degradation was abolished | BRD9 levels after pretreatment with neddylation inhibitor (MLN-4924) [1, 17]: rescued BRD9 levels | BRD9 loss (immunoblot) ([1]; wild type MM.1S cells, 4 hour treatment, indicated doses): marked dose-dependent BRD9 loss | BRD9 degradation (immunoblot) [2]: little to no BRD9 degradation | IC50 [3]: 1710 nM | half-maximal anti-proliferative concentration [4]: low nanomolar | maximal efficacy on cell proliferation [4]: significantly exceeded that of the more selective I-25 | IC50 [5]: 11.2 nM | % Ctrl @ 1 μM [6]: 68 % Ctrl | % Ctrl @ 1 μM [7]: 42 % Ctrl | % Ctrl @ 1 μM [8]: 54 % Ctrl | % Ctrl @ 1 μM [9]: 84 % Ctrl | % Ctrl @ 1 μM [10]: 74 % Ctrl | % Ctrl @ 1 μM [11]: 60 % Ctrl | BRD9:CRBN-DDB1 dimerization, comparison in words [12]: superior; also recorded: effectively induce biochemical association | BRD9:CRB9-DDB1 AUC [12, 18]: 80620 | BRD9:CRB9-DDB1 Cmax [12, 18]: 26.2 nM | formation of the BRD9:CRBN-DDB1 protein complex ([12]; relative to unmodified pomalidomide): significantly induce formation of the complex | formation of the BRD9:CRBN-DDB1 protein complex ([12]; relative to unmodified thalidomide): significantly induce formation of the complex | half-maximal anti-proliferative concentration [13]: low nanomolar | maximal efficacy on cell proliferation [13]: significantly exceeded that of the more selective I-25 | formation of the BRD4:CRBN-DDB1 protein complex [14]: effectively induce biochemical association | time to near complete BRD9 loss ([15]; MOLM-13, 100 nM): ≤ 1 h | return of BRD9 during treatment ([15]; MOLM-13, 100 nM, 24-hour treatment period): no detectable return | BRD9 protein level (immunoblot) ([15]; MOLM-13, 4 hour treatment, indicated concentrations, in words): effectively downregulate BRD9 over a broad range of concentrations; also recorded: effectively downregulating BRD9 protein over a broad range of concentrations | IC50 [16]: 12.3 nM
